The target in assay [1] is T1, Estrogen receptor beta (Homo sapiens, UniProt Q92731).
For assay [2], the target named is T1, Estrogen receptor beta. The assay is described as follows: ERβ–SRC-3 coactivator interaction inhibitors, confirmation, orthogonal assay, biochemical, ELISA, streptavidin-HRP readout (AID 1060).
Assay [3] deals with T2, Caspase-7 (Homo sapiens, UniProt P55210).
T2 sequence (P55210 whole entry): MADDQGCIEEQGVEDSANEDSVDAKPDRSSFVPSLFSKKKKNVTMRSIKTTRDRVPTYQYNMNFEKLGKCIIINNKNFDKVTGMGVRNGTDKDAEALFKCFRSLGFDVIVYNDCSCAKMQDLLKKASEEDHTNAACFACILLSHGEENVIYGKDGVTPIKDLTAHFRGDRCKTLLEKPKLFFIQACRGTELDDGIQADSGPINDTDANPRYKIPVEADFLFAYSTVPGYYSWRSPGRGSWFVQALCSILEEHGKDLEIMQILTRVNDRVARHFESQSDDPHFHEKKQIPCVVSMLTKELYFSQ
The assay is described as follows: human caspase-7 inhibitors, dose response, selectivity assay for caspase-6 inhibitor project, biochemical, DEVD-R110 fluorescence, cherry-pick (AID 743295). Type of assay: […].

Assay [4] addresses T3, Caspase-6 (Homo sapiens, UniProt P55212).
T3 sequence (P55212 whole entry): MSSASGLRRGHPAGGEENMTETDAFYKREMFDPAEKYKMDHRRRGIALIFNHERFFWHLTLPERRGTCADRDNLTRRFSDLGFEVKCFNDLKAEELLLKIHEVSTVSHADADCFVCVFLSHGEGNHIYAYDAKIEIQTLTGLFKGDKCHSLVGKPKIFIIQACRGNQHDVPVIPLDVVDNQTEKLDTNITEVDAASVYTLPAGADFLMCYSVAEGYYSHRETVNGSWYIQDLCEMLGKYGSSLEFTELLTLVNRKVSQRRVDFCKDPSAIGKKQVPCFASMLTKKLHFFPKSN
The assay is described as follows: human caspase-6 inhibitors, dose response, biochemical, VEID-R110 fluorescence, cherry-pick (AID 720632).

Assay [5] deals with Caspase-9 (Homo sapiens, UniProt P55211). Put plainly: caspase-9 enzyme inhibition, dose response, selectivity assay for caspase-6 inhibitor project, biochemical, fluorescence, plate reader, cherry-picked samples (AID 743293).
For assay [6], the target named is Nonstructural protein 1 (Influenza A virus, UniProt Q194T2). The assay is classed as functional, Influenza A virus (A/California/07/2009(H1N1)).
The nature of assay [7]: growth suppression of PTEN-null colon cells, dose response, cell-based, HCT116 PTEN knockout (AID 1047).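 Note: HCT116 colon tumor cells with PTEN knocked out; cells exposed to compound for 60 hours before readout; potency for loss of cell viability measured by luminescence.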 Type of assay: functional.
A short description of assay [8]: inhibitors of PGC1a acetylation in cells, dose response, cell-based, cherry-picked samples (AID 720514).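 Note: potency may reflect raised or lowered acetylation signal.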 The assay is classed as functional.
Assay [9] can be described thus: growth suppression of beta-catenin-knockout colon cells, dose response, cell-based, HCT116, human colon tumor (AID 1045).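 Note: HCT116 colon tumor cells with beta catenin knocked out; cells exposed to compound for 60 hours.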 Type of assay: functional.
Assay [10] in a line: HEp-2 cell cytotoxicity, dose response, cytotoxicity control for RSV inhibitor project, HTS (AID 2410). The assay is classed as functional. The conditions noted are these: human respiratory syncytial virus.
The nature of assay [11]: Luminescence Cell-Based Dose Retest to Confirm Inhibitors of Cancer Stem Cells. [Related pubchem assays (depositor defined):AID2717, AID2721]. The assay is classed as functional. The following applies: Homo sapiens.
A short description of assay [12]: Plasmodium falciparum Dd2 Sybr green parasite growth Measured in Cell-Based and Microorganism Combination System Using Plate Reader - 2153-01_Inhibitor_Dose_DryPowder_Activity_Set3. Type of assay: functional.
Assay [13] is described as follows: P. falciparum ATP4 D1247Y mutant growth inhibitors, dose response, NITD609-resistant line, SYBR Green, dry powder (AID 1159571).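 Note: parasites synchronized at ring stage by sorbitol before testing.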 The assay is classed as functional, cell-based.
Assay [14] is described as follows: HepG2 cell cytotoxicity, dose response, cytotoxicity control, plate reader, dry powder samples (AID 1159569).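 Note: inhibitor potency with signal falling toward the positive control level.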 Type of assay: functional, cell-based.
Assay [15] in a line: A549 cell cytotoxicity, dose response, cytotoxicity control, plate reader, cherry-pick, antagonist series (AID 743412). The assay is classed as functional, cell-based.
The nature of assay [16]: P. falciparum Dd2 growth inhibitors, dose response, SYBR Green, dry powder samples (AID 1159566).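 Note: potency for growth inhibition with lower SYBR green DNA signal.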 Type of assay: functional, cell-based.
Assay [17] is described as follows: P. falciparum 3D7-ScDHODH growth inhibitors, dose response, SYBR Green, dry powder samples (AID 1159570).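 Note: parasite growth measured after 72 hours of compound exposure.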 The assay is classed as functional, cell-based.
The nature of assay [18]: P. falciparum Dd2 growth inhibitors, dose response, SYBR Green, cherry-picked samples (AID 1159567). Type of assay: functional, cell-based.
Assay [19] has as its target Protein Tat (Human immunodeficiency virus type 1 group M subtype B (isolate HXB2)(HIV-1), UniProt P04608). The assay is classed as functional.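 Note: tat binding to TAR RNA read out by fluorescence polarization.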
Assay [20] is described as follows: cells. Type of assay: functional, cell-based.
Assay [21] concerns the target Glutathione-S-transferase (Schistosoma japonicum, UniProt Q26513). The assay is described as follows: biotin-GST/anti-GST TR-FRET signal inhibitors, dose response, artefact control for Vif-APOBEC3G degradation inhibitor project, biochemical (AID 1117362). Type of assay: functional. For orientation: In TR-FRET formats the signal depends on donor and acceptor labels being close together.

The target of assay [22] is T4, Nuclear receptor subfamily 0 group B member 1 (Homo sapiens, UniProt P51843).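 Note: HEK293T cells transfected with SF-1 and DAX-1 plus StAR promoter luciferase reporter.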
T4 sequence (P51843 whole entry): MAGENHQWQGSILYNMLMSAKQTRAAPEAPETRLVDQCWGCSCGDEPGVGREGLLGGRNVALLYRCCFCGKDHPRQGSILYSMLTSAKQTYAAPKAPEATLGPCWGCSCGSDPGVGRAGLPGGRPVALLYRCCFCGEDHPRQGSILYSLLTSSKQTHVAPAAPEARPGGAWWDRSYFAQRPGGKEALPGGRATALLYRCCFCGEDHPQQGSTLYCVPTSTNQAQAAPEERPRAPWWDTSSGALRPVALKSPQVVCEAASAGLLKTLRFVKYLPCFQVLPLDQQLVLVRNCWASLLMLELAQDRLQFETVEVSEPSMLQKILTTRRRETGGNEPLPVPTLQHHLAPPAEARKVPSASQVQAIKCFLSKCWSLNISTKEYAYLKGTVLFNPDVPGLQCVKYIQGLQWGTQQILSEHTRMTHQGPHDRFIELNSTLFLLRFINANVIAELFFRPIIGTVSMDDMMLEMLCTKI
Type of assay: functional, cell-based.

In assay [23] the target is D(1A) dopamine receptor (Homo sapiens, UniProt P21728). Put plainly: Counterscreening of D4 Antagonists against Dopamine 1 (Human), Confirmatory Assay. Type of assay: functional. A general note: Counterscreens check selectivity or assay interference.
Assay [24] addresses D(3) dopamine receptor (Homo sapiens, UniProt P35462). Put plainly: Counterscreening of D4 Antagonists against Dopamine 3 DRD3 (Human), Confirmatory Assay. The assay is classed as functional.
Assay [25] deals with D(2) dopamine receptor (Homo sapiens, UniProt P14416). The assay is described as follows: Counterscreening of D4 Antagonists against Dopamine 2S (Human), Confirmatory Assay. The assay is classed as functional.
Assay [26] deals with D(1B) dopamine receptor (Homo sapiens, UniProt P21918). Put plainly: Counterscreening of D4 Antagonists against Dopamine 5 DRD5 (Human), Confirmatory Assay. Type of assay: functional.
Assay [27] addresses T5, Mannose-6-phosphate isomerase (Homo sapiens, UniProt P34949).
T5 sequence (P34949 whole entry): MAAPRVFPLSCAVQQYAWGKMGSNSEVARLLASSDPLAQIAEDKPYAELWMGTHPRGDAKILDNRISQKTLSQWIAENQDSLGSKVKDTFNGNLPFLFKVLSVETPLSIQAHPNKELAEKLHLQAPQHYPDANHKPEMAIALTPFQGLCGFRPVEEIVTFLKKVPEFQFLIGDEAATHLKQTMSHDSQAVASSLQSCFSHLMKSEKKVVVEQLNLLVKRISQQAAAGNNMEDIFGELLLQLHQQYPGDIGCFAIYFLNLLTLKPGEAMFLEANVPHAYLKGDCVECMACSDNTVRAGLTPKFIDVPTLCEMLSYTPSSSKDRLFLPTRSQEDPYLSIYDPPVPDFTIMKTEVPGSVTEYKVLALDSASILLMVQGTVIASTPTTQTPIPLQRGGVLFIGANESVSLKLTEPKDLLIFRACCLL
The assay is described as follows: human PMI inhibitors, high substrate, primary screen, biochemical, fluorescence intensity, high mannose 6-phosphate (AID 1220).

The source made the active and inactive calls. Bounds are passed on as bounds.

One may read the IC50 as the midpoint of a concentration-inhibition curve. One may read the AC50 as the midpoint of the concentration-response curve, whichever way the signal moves. As a reminder, the EC50 is the concentration giving half of the maximal effect. In general, CC50 refers to the concentration that lowers cell viability or growth by half.

T1 sequence (Q92731 whole entry): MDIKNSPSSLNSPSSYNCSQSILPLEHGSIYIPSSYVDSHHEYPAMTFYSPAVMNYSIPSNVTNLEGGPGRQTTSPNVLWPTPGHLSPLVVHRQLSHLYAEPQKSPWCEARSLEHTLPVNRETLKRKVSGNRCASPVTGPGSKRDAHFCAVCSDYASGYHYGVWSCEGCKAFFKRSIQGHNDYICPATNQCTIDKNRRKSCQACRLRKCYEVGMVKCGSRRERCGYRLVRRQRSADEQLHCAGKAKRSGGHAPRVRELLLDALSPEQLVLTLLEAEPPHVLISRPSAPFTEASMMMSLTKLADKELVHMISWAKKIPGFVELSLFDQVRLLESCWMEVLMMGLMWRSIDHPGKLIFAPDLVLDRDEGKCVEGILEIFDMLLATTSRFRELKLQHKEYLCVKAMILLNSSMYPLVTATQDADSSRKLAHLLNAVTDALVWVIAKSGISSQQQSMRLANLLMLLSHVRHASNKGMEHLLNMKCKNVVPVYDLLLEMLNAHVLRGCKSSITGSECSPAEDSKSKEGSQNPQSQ
Nonstructural protein 1, sequence (Q194T2 whole entry): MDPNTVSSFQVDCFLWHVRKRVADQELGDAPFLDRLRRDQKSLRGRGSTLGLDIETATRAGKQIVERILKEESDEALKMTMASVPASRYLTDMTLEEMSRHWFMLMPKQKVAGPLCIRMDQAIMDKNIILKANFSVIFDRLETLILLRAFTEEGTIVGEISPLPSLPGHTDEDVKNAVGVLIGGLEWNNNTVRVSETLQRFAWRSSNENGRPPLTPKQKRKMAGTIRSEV
Protein Tat, sequence (P04608 whole entry): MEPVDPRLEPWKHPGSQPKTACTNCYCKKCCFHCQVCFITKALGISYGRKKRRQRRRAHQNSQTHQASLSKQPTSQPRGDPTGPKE
Caspase-9, sequence (P55211 1-315 limits assumed): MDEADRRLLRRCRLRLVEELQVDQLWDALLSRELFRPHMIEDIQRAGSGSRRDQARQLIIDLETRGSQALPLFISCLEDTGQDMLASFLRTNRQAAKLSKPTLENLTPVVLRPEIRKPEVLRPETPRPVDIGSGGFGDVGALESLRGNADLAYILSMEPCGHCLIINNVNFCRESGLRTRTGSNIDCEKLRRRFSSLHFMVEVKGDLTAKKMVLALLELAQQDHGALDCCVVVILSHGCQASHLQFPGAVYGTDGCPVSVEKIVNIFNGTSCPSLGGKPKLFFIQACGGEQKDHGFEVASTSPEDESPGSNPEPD
Caspase-9, sequence (P55211 331-416 limits assumed): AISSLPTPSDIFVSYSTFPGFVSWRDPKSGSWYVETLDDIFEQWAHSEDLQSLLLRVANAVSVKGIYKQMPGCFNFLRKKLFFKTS
D(3) dopamine receptor, sequence (P35462 whole entry): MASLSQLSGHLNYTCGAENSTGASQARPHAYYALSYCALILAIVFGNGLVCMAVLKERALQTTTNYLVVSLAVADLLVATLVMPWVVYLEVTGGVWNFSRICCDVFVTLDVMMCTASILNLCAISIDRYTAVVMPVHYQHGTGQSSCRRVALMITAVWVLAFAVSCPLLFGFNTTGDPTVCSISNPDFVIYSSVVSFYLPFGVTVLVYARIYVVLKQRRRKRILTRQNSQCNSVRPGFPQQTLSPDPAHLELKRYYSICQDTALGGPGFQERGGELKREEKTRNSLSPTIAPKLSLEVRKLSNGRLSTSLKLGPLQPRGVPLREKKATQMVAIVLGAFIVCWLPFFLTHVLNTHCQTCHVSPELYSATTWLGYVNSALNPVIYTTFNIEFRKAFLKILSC
D(2) dopamine receptor, sequence (P14416 whole entry): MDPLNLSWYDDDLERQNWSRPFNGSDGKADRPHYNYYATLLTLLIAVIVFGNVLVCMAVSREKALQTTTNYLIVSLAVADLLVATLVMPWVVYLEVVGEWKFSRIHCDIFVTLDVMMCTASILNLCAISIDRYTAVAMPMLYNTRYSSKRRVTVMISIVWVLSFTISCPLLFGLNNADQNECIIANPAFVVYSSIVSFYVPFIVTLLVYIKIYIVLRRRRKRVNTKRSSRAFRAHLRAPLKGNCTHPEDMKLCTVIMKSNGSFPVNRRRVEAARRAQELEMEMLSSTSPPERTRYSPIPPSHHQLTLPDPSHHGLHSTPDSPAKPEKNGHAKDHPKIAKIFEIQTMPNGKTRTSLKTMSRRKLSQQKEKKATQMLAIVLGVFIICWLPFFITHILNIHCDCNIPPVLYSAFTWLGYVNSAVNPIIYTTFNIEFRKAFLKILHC
D(1A) dopamine receptor, sequence (P21728 whole entry): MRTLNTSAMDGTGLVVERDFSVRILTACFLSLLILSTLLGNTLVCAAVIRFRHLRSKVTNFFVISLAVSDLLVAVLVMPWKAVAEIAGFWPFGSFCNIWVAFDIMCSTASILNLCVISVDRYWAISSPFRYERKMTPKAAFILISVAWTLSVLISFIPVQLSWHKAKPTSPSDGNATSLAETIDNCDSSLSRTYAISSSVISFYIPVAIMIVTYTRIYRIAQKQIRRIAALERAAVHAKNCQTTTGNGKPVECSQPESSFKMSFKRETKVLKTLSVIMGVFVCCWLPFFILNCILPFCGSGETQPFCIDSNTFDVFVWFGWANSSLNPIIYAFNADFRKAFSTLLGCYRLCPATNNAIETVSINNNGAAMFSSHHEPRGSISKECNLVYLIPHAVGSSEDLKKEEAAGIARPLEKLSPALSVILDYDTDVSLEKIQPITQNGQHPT
D(1B) dopamine receptor, sequence (P21918 whole entry): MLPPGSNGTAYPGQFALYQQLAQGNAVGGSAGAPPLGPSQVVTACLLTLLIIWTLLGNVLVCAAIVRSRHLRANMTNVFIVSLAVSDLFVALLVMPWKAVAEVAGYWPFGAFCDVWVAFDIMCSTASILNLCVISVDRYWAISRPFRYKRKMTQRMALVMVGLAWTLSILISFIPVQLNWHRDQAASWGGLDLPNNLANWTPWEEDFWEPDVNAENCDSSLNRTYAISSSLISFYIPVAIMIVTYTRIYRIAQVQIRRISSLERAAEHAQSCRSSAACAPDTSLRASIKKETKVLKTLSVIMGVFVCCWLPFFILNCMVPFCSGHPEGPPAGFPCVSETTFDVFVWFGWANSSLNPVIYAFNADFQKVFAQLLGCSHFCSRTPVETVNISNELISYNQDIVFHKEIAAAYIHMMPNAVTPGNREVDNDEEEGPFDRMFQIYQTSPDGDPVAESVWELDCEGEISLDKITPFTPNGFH
Glutathione-S-transferase, sequence (Q26513 whole entry): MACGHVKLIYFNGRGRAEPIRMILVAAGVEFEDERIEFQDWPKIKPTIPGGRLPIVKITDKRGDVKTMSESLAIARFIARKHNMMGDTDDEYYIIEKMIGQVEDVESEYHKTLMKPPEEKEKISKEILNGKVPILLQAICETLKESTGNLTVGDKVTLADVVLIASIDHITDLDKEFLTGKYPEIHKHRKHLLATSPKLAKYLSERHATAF

Take `Cc1ccc(-c2nnc(CSc3nc4cc5c(cc4cc3C)OCO5)o2)cc1`: the results for the IC50 in [1] and in assay [2] were > 50 µM (not active) and 0.0359 µM (not active), respectively.

On to `O=C(C[C@@H]1C[C@H]2c3cc(NC(=O)NC4CCCCC4)ccc3O[C@H]2[C@H](CO)O1)NCc1ccccn1`, for which the values for the AC50 in assay [3], in assay [4] and in assay [5] were 29.7 µM (active), 7.79 µM (active) and 53.5 µM (active), respectively.

Turning to `CCCOc1ccccc1-n1sc2c(c1=S)-c1cc(OC)cc3c1N(C(=O)C3=O)C2(C)C`, in assay [6], the IC50 is 9.35 µM (active). Besides, the EC50 in [7] is 19.9 µM (active); in assay [9], 22 µM (active). For the same molecule, the AC50 was 19.4 µM (active) in [8] and 5.35 µM (active) in [11]. For the same molecule, in assay [10], the CC50 is 21.4 µM (active).

Turning to `CCCNC(=O)N1[C@H](C#N)[C@H](c2ccc(C#Cc3ccc(F)cc3)cc2)[C@H]1CO`, the AC50 in assay [12] is 0.00982 µM (active); in assay [13], 0.0156 µM (active); in assay [14] it was 22.3 µM (active); in assay [15], 24.7 µM (active); in assay [16], 0.016 µM (active); in [17], 7.89 µM (active). The AC50 in assay [18] is < 0.3 µM (active).

Regarding `CCCn1cnc2cc(NCc3ccccn3)ccc21`, the IC50 was > 100 µM (active) in assay [6]; > 100 µM (active) in assay [19]; > 67.5 µM (inactive) in assay [20]; > 100 µM (active) in assay [21]; > 67.5 µM (inactive) in assay [22].

Turning to `Clc1ccc(CN2CCO[C@H](CCc3ccccc3)C2)cc1`, the IC50 in [23], in assay [24], in assay [25] and in assay [26] was 20 µM (inactive) each time.

As for `C=CCn1c(SCC(=O)N2N=C(c3ccco3)CC2c2ccco2)nnc1-c1ccncc1` (stereo not drawn), the IC50 in assay [27] was > 50 µM (not active).

(Values after ChEMBL document CHEMBL1201862, “PubChem BioAssay data set” (2004).)
